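1) Cells in 96-well plates. 2) Compound, 48 h, 5 concentrations. 3) Linear interpolation between surrounding doses. 4) Unreached endpoint = highest concentration. At the TGI there is no net growth.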
What was measured:
Experiment in all cases: NCI anticancer screen, dose series, 48 h
MDA-N = tested on: MDA-N
KM12 colon = tested on: KM12 colon
CCRF-CEM leukemia = tested on: CCRF-CEM leukemia
UO-31 renal = tested on: UO-31 renal
MOLT-4 leukemia = tested on: MOLT-4 leukemia
SK-MEL-5 melanoma = tested on: SK-MEL-5 melanoma
SK-MEL-2 melanoma = tested on: SK-MEL-2 melanoma
PC-3 prostate = tested on: PC-3 prostate
UACC-62 melanoma = tested on: UACC-62 melanoma
M14 melanoma = tested on: M14 melanoma
LOX IMVI melanoma = tested on: LOX IMVI melanoma
786-0 renal = tested on: 786-0 renal
OVCAR-8 ovarian = tested on: OVCAR-8 ovarian
CAKI-1 renal = tested on: CAKI-1 renal
A549 NSCLC = tested on: A549 NSCLC
SK-MEL-28 melanoma = tested on: SK-MEL-28 melanoma
K-562 leukemia = tested on: K-562 leukemia
HOP-62 NSCLC = tested on: HOP-62 NSCLC
DU-145 prostate = tested on: DU-145 prostate
BT-549 breast = tested on: BT-549 breast
SN12C renal = tested on: SN12C renal
NCI/ADR-RES ovarian = tested on: NCI/ADR-RES ovarian
SNB-19 CNS = tested on: SNB-19 CNS
NCI-H23 lung = tested on: NCI-H23 lung
NCI-H522 lung = tested on: NCI-H522 lung
OVCAR-5 ovarian = tested on: OVCAR-5 ovarian
COLO 205 colon = tested on: COLO 205 colon
MDA-MB-435 = tested on: MDA-MB-435
HOP-92 NSCLC = tested on: HOP-92 NSCLC
NCI-H226 lung = tested on: NCI-H226 lung
IGROV1 ovarian = tested on: IGROV1 ovarian
U251 CNS = tested on: U251 CNS
HL-60(TB) leukemia = tested on: HL-60(TB) leukemia
SR leukemia = tested on: SR leukemia
OVCAR-3 ovarian = tested on: OVCAR-3 ovarian
MCF7 breast = tested on: MCF7 breast
SW-620 colon = tested on: SW-620 colon
NCI-H460 lung = tested on: NCI-H460 lung
EKVX NSCLC = tested on: EKVX NSCLC
SNB-75 CNS = tested on: SNB-75 CNS
HT29 colon = tested on: HT29 colon
RPMI-8226 leukemia = tested on: RPMI-8226 leukemia
OVCAR-4 ovarian = tested on: OVCAR-4 ovarian
SF-539 CNS = tested on: SF-539 CNS
MDA-MB-231 breast = tested on: MDA-MB-231 breast
ACHN renal = tested on: ACHN renal
HCC-2998 colon = tested on: HCC-2998 colon
HCT-116 colon = tested on: HCT-116 colon
SF-295 CNS = tested on: SF-295 CNS
UACC-257 melanoma = tested on: UACC-257 melanoma
RXF 393 renal = tested on: RXF 393 renal
A498 renal = tested on: A498 renal
MALME-3M melanoma = tested on: MALME-3M melanoma
SF-268 CNS = tested on: SF-268 CNS
TK-10 renal = tested on: TK-10 renal
HS 578T breast = tested on: HS 578T breast
T-47D breast = tested on: T-47D breast
SK-OV-3 ovarian = tested on: SK-OV-3 ovarian

Measured: TGI

O=C1ON=C2C3CC4CC12CC1(C3)C(=O)ON=C41
not listed: SF-268 CNS | TK-10 renal | HS 578T breast | T-47D breast | SK-OV-3 ovarian
> 100 µM: all other assays above

c1ccc(C2=NCCc3cc4c(cc32)OCO4)cc1
not listed: CCRF-CEM leukemia | UO-31 renal | MOLT-4 leukemia | K-562 leukemia | BT-549 breast | HOP-92 NSCLC | NCI-H226 lung | HL-60(TB) leukemia | NCI-H460 lung | SNB-75 CNS | HT29 colon | RPMI-8226 leukemia | ACHN renal | HCT-116 colon
> 100 µM: all other assays above

From PubChem BioAssay (NCI)
